Assay results as given in patent US7361666B2, “Heterocyclic analgesic compounds and methods of use thereof” (Sepracor, Inc., priority 1999, dated 2008).

What was measured:
κ opioid receptor = κ opioid receptor (Cavia porcellus, UniProt P41144); assay: Opiate receptor binding (κ); settings: procedure of Maguire et al.
Protocol: (§1) The opioid (μ, κ, δ) receptor-binding capabilities of compounds described herein were determined according to the procedures outlined by Wang et al. (FEBS Letters 1994, 338, 217), Maguire et al. (Eur. J. Pharmacol. 1992, 213, 219), and Simonin et al. (Mol. Pharmacol. 1994, 46, 1015).

μ opioid receptor = μ opioid receptor (Homo sapiens, UniProt P35372); assay: Opiate receptor binding (μ); settings: procedure of Wang et al.
Description: Another assay useful in the present invention concerns determining the ability of a ligand to bind to a biological receptor utilizing a technique well known in the art referred to as a radioligand binding assay. This assay accurately determines the specific binding of a radioligand to a targeted receptor through the delineation of its total and nonspecific binding components. Total binding is defined as the amount of radioligand that remains following the rapid separation of the radioligand bound in a receptor preparation (cell homogenates or recombinate receptors) from that which is unbound. The nonspecific binding component is defined as the amount of radioligand that remains following separation of the reaction mixture consisting of receptor, radioligand and an excess of unlabeled ligand. Under this condition, the only radioligand that remains represents that which is bound to components other that receptor. The specific radioligand bound is determined by subtracting the nonspecific from total radioactivity bound. For a specific example of radioligand binding assay for μ-opioid receptor, see Wang, J. B. et al. FEBS Letters 1994, 338, 217.
as §1

δ opioid receptor = δ opioid receptor (Homo sapiens, UniProt P41143); assay: Opiate receptor binding (δ); settings: procedure of Simonin et al.
Protocol: as §1

Chain of κ opioid receptor (P41144 whole entry): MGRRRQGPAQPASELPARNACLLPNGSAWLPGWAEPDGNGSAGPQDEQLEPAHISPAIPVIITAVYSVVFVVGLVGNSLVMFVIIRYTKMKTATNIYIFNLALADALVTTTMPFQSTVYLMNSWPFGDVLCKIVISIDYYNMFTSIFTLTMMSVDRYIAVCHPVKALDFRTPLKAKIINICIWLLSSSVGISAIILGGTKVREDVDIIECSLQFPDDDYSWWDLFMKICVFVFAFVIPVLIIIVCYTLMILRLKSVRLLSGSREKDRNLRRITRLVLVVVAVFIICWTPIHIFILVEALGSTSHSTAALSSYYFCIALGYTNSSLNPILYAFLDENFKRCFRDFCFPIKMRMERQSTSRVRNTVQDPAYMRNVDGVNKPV
Chain of μ opioid receptor (P35372 whole entry): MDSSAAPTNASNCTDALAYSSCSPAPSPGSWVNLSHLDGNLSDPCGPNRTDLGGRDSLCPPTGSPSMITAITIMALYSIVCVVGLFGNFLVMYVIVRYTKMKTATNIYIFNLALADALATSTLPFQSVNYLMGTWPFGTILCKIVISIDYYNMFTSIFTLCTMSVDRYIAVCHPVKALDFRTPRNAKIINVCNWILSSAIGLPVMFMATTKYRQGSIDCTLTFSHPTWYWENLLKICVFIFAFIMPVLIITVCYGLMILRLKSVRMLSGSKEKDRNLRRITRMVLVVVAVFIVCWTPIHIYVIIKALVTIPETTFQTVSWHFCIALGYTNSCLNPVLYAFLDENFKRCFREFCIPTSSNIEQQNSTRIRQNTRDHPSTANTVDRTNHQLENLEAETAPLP
Chain of δ opioid receptor (P41143 whole entry): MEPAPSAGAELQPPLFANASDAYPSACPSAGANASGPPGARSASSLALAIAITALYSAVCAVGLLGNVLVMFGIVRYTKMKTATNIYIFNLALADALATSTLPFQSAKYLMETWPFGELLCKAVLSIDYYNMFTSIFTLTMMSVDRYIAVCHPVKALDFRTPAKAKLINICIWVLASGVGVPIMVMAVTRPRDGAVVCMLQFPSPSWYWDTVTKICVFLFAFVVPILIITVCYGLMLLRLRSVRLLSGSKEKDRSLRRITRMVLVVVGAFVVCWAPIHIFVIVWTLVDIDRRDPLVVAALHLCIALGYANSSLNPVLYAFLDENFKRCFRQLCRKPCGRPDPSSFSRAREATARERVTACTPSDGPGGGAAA

SMILES | IC50 (κ opioid receptor) | IC50 (μ opioid receptor) | IC50 (δ opioid receptor)
CCC(=O)N(CC1CCCN(CCc2ccccc2)C1)C(C)c1ccccc1 (single isomer, unassigned) [Compound 222, N-(1-Phenethyl-piperidin-3-ylmethyl)-N-(1-phenyl-ethyl)-propionamide] | > 1000 nM | > 1000 nM | > 1000 nM
CCC(=O)N(CC1CCCN(CCc2ccccc2)C1)C(C)c1ccccc1 (single isomer, unassigned) [Compound 225, N-(1-Phenethyl-piperidin-3-ylmethyl)-N-(1-phenyl-ethyl)-propionamide] | > 1000 nM | < 1000 nM | > 1000 nM
CCC(=O)N(CC1CCCN(CCc2ccccc2)C1)C(C)c1ccccc1 (single isomer, unassigned) [Compound 220, N-(1-Phenethyl-piperidin-3-ylmethyl)-N-(1-phenyl-ethyl)-propionamide] | < 1000 nM | < 1000 nM | > 1000 nM
CCC(=O)N(CC1CCCN(CCc2ccccc2)C1)C(C)c1ccccc1 (single isomer, unassigned) [Compound 224, N-(1-Phenethyl-piperidin-3-ylmethyl)-N-(1-phenyl-ethyl)-propionamide] | > 1000 nM | < 1000 nM | > 1000 nM
CCC(=O)N(CC1CCCN(CCc2ccccc2)C1)C(C)c1ccccc1 (single isomer, unassigned) [Compound 221, N-(1-Phenethyl-piperidin-3-ylmethyl)-N-(1-phenyl-ethyl)-propionamide] | < 1000 nM | < 1000 nM | > 1000 nM
CCC(=O)N(CC1CCCN(CCc2ccccc2)C1)C(C)c1ccccc1 (single isomer, unassigned) [Compound 223, N-(1-Phenethyl-piperidin-3-ylmethyl)-N-(1-phenyl-ethyl)-propionamide] | > 1000 nM | < 100 nM | > 1000 nM
